Patent publication US20230373985A1 (Origenis Gmbh, priority 2020, published 2023)

Assays:
[1] = biological target: T1, wt human TYK2, catalytic site (Homo sapiens, UniProt P29597); test: HTRF KinEASE assay, TYK2; assay type: biochemical; settings: 1 μM ATP; read-out: IC50, Activity Toward TYK2
T1 construct: wt human TYK2, catalytic site; purchased SignalChem
T1 sequence (P29597 897-1176 limits assumed): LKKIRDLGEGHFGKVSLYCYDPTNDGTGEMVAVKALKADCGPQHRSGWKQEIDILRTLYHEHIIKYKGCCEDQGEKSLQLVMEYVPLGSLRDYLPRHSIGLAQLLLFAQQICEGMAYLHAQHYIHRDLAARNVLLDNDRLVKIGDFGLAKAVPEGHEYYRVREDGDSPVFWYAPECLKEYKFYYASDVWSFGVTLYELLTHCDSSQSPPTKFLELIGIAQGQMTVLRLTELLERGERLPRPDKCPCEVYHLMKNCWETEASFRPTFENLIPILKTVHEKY
Outline: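 HTRF KinEASE-TK readout with 1 μM biotinylated TK substrate in 1× kinase buffer, ≥30 min at room temperature, then antibody/streptavidin-XL665 detection for 60 min. TYK2 at 2 nM with 1 μM ATP; JAK2 at 1 nM with 100 μM ATP. Analysis uses emission ratios.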

[2] = biological target: T2, wt human JAK1, catalytic site (Homo sapiens, UniProt P23458); test: HTRF KinEASE assay, JAK1; assay type: biochemical; settings: 2.5 μM ATP; read-out: IC50, Activity Toward JAK1
T2 construct: wt human JAK1, catalytic site; purchased ThermoFisher
T2 sequence (P23458 875-1153 limits assumed): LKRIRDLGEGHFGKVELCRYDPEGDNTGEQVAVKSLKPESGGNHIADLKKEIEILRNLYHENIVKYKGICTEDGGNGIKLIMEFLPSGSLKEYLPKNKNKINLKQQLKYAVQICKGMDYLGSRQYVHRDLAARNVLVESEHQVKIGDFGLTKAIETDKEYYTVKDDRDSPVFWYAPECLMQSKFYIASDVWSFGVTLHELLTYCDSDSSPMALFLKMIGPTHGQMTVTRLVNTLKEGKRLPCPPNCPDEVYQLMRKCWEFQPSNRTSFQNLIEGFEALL
Outline: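 Two-step HTRF KinEASE assay: compound, kinase/biotinylated TK substrate and ATP were incubated at least 30 min at room temperature. Antibody plus streptavidin-XL665 was then added and plates were read after 60 min. Inhibition was derived from emission ratios according to the kit protocol.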

SMILES	IC50 [1] [µM]	IC50 [2] [µM]
CN1CCC(Oc2ccc(Nc3cn(-c4c(Cl)cccc4Cl)nc3C(N)=O)cn2)CC1 [compound 405, 1-(2,6-dichlorophenyl)-4-((6-((1-methylpiperidin-4-yl)oxy)pyridin-3-yl)amino)-1H-pyrazole-3-carboxamide]	0.1 to 1	0.1 to 1
COCCCNC(=O)c1ccc(Nc2cn(-c3c(Cl)cccc3Cl)nc2C(N)=O)cc1 [compound 420, 1-(2,6-dichlorophenyl)-4-((4-((3-methoxypropyl)carbamoyl)phenyl)amino)-1H-pyrazole-3-carboxamide]	0.1 to 1	0.1 to 1
NC(=O)c1nn(-c2c(Cl)cccc2Cl)cc1Nc1ccc(N2CCOCC2)cn1 [compound 428, 1-(2,6-dichlorophenyl)-4-((5-morpholinopyridin-2-yl)amino)-1H-pyrazole-3-carboxamide]	0.1 to 1	0.1 to 1
Cc1ncnn1-c1ccc(Nc2cn(-c3c(Cl)cccc3Cl)nc2C(N)=O)nc1 [compound 430, 1-(2,6-dichlorophenyl)-4-((5-(5-methyl-1H-1,2,4-triazol-1-yl)pyridin-2-yl)amino)-1H-pyrazole-3-carboxamide]	0.1 to 1	0.1 to 1
CCn1ncnc1-c1ccc(Nc2cn(-c3c(Cl)cccc3Cl)nc2C(N)=O)nc1 [compound 431, 1-(2,6-dichlorophenyl)-4-((5-(1-ethyl-1H-1,2,4-triazol-5-yl)pyridin-2-yl)amino)-1H-pyrazole-3-carboxamide]	0.1 to 1	0.01 to 0.1
Cc1cnnn1-c1ccc(Nc2cn(-c3c(Cl)cccc3Cl)nc2C(N)=O)nc1 [compound 432, 1-(2,6-dichlorophenyl)-4-((5-(5-methyl-1H-1,2,3-triazol-1-yl)pyridin-2-yl)amino)-1H-pyrazole-3-carboxamide]	0.1 to 1	0.01 to 0.1
NC(=O)c1nn(-c2c(Cl)cccc2Cl)cc1Nc1ccc(C(=O)N2CC(O)C2)cn1 [compound 439, 1-(2,6-dichlorophenyl)-4-((5-(3-hydroxyazetidine-1-carbonyl)pyridin-2-yl)amino)-1H-pyrazole-3-carboxamide]	0.1 to 1	0.01 to 0.1
NC(=O)c1nn(-c2c(Cl)cccc2Cl)cc1Nc1ccc(CC(=O)N2CCOCC2)nc1 [compound 440, 1-(2,6-dichlorophenyl)-4-((6-(2-morpholino-2-oxoethyl)pyridin-3-yl)amino)-1H-pyrazole-3-carboxamide]	0.1 to 1	0.01 to 0.1
NC(=O)c1nn(-c2c(Cl)cccc2Cl)cc1Nc1ccc(CC(=O)N2CC(F)C2)nc1 [compound 441, 1-(2,6-dichlorophenyl)-4-((6-(2-(3-fluoroazetidin-1-yl)-2-oxoethyl)pyridin-3-yl)amino)-1H-pyrazole-3-carboxamide]	0.1 to 1	0.1 to 1
CN(C)C1CCN(C(=O)c2ccc(Nc3cn(-c4c(Cl)cccc4Cl)nc3C(N)=O)nc2)CC1 [compound 442, 1-(2,6-dichlorophenyl)-4-((5-(4-(dimethylamino)piperidine-1-carbonyl)pyridin-2-yl)amino)-1H-pyrazole-3-carboxamide]	0.1 to 1	0.1 to 1
NC(=O)c1nn(-c2c(Cl)cccc2Cl)cc1Nc1ccc(-c2nnc3cncc(Cl)n23)nc1 [compound 447, 4-((6-(5-chloro-[1,2,4]triazolo[4,3-a]pyrazin-3-yl)pyridin-3-yl)amino)-1-(2,6-dichlorophenyl)-1H-pyrazole-3-carboxamide]	0.01 to 0.1	0.01 to 0.1
CN1CCCN(C(=O)c2ccc(Nc3cn(-c4c(Cl)cccc4Cl)nc3C(N)=O)nc2)CC1 [compound 448, 1-(2,6-dichlorophenyl)-4-((5-(4-methyl-1,4-diazepane-1-carbonyl)pyridin-2-yl)amino)-1H-pyrazole-3-carboxamide]	0.1 to 1	0.01 to 0.1
NC(=O)c1nn(-c2c(Cl)cccc2Cl)cc1Nc1ccc(C(=O)N2CC(F)C2)cn1 [compound 449, 1-(2,6-dichlorophenyl)-4-((5-(3-fluoroazetidine-1-carbonyl)pyridin-2-yl)amino)-1H-pyrazole-3-carboxamide]	0.1 to 1	0.1 to 1
CC(F)(F)c1nnnn1-c1ccc(Nc2cn(-c3c(Cl)cccc3Cl)nc2C(N)=O)cn1 [compound 460, 1-(2,6-dichlorophenyl)-4-((6-(5-(1,1-difluoroethyl)-1H-tetrazol-1-yl)pyridin-3-yl)amino)-1H-pyrazole-3-carboxamide]	0.1 to 1	0.1 to 1

Other lines, results leading:

IC50 [1] [µM]	IC50 [2] [µM]	SMILES
< 0.01	0.01 to 0.1	CCc1cnnn1-c1ccc(Nc2cn(-c3c(Cl)cccc3Cl)nc2C(N)=O)cc1 [compound 411, 1-(2,6-dichlorophenyl)-4-((4-(5-ethyl-1H-1,2,3-triazol-1-yl)phenyl)amino)-1H-pyrazole-3-carboxamide]
0.01 to 0.1	0.01 to 0.1	NC(=O)c1nn(-c2c(Cl)cc(F)cc2Cl)cc1Nc1ccc(C(=O)N2CCOCC2)cc1 [compound 412, 1-(2,6-dichloro-4-fluorophenyl)-4-((4-(morpholine-4-carbonyl)phenyl)amino)-1H-pyrazole-3-carboxamide]
< 0.01	0.01 to 0.1	CN1CCC(N(C)C(=O)c2ccc(Nc3cn(-c4c(Cl)cc(F)cc4Cl)nc3C(N)=O)cc2)CC1 [compound 413, 1-(2,6-dichloro-4-fluorophenyl)-4-((4-(methyl(1-methylpiperidin-4-yl)carbamoyl)phenyl)amino)-1H-pyrazole-3-carboxamide]
0.01 to 0.1	0.01 to 0.1	COCCNC(=O)c1ccc(Nc2cn(-c3c(Cl)cccc3Cl)nc2C(N)=O)cc1 [compound 419, 1-(2,6-dichlorophenyl)-4-((4-((2-methoxyethyl)carbamoyl)phenyl)amino)-1H-pyrazole-3-carboxamide]
0.01 to 0.1	0.1 to 1	Cc1cccc2nnc(-c3ccc(Nc4cn(-c5c(Cl)cccc5Cl)nc4C(N)=O)nc3)n12 [compound 429, 1-(2,6-dichlorophenyl)-4-((5-(5-methyl-[1,2,4]triazolo[4,3-a]pyridin-3-yl)pyridin-2-yl)amino)-1H-pyrazole-3-carboxamide]
0.01 to 0.1	0.01 to 0.1	Cn1cc(C(F)(F)F)nc1-c1ccc(Nc2cn(-c3c(Cl)cccc3Cl)nc2C(N)=O)nc1 [compound 433, 1-(2,6-dichlorophenyl)-4-((5-(1-methyl-4-(trifluoromethyl)-1H-imidazol-2-yl)pyridin-2-yl)amino)-1H-pyrazole-3-carboxamide]
0.01 to 0.1	0.01 to 0.1	Cc1nnnn1-c1ccc(Nc2cn(-c3c(Cl)cccc3Cl)nc2C(N)=O)nc1 [compound 435, 1-(2,6-dichlorophenyl)-4-((5-(5-methyl-1H-tetrazol-1-yl)pyridin-2-yl)amino)-1H-pyrazole-3-carboxamide]
0.01 to 0.1	0.1 to 1	NC(=O)c1nn(-c2c(Cl)cccc2Cl)cc1Nc1ccc(-n2nncc2C(F)(F)F)cc1 [compound 438, 1-(2,6-dichlorophenyl)-4-((4-(5-(trifluoromethyl)-1H-1,2,3-triazol-1-yl)phenyl)amino)-1H-pyrazole-3-carboxamide]
0.01 to 0.1	0.01 to 0.1	NC(=O)c1nn(-c2c(Cl)cccc2Cl)cc1Nc1ccc(C(=O)N2CC[C@@H](F)C2)cn1 [compound 443, (R)-1-(2,6-dichlorophenyl)-4-((5-(3-fluoropyrrolidine-1-carbonyl)pyridin-2-yl)amino)-1H-pyrazole-3-carboxamide]
0.01 to 0.1	0.01 to 0.1	N#CC1CN(C(=O)c2ccc(Nc3cn(-c4c(Cl)cccc4Cl)nc3C(N)=O)nc2)C1 [compound 444, 4-((5-(3-cyanoazetidine-1-carbonyl)pyridin-2-yl)amino)-1-(2,6-dichlorophenyl)-1H-pyrazole-3-carboxamide]
0.01 to 0.1	0.01 to 0.1	Cn1nnnc1-c1ccc(Nc2cn(-c3c(Cl)cccc3Cl)nc2C(N)=O)nc1 [compound 445, 1-(2,6-dichlorophenyl)-4-((5-(1-methyl-1H-tetrazol-5-yl)pyridin-2-yl)amino)-1H-pyrazole-3-carboxamide]
0.01 to 0.1	0.1 to 1	NC(=O)c1nn(-c2c(Cl)cccc2Cl)cc1Nc1ccc(CN2CCS(=O)(=O)CC2)nc1 [compound 455, 1-(2,6-dichlorophenyl)-4-((6-((1,1-dioxidothiomorpholino)methyl)pyridin-3-yl)amino)-1H-pyrazole-3-carboxamide]
< 0.01	0.01 to 0.1	N#Cc1cccc(Cl)c1-n1cc(Nc2ccc(C(=O)N3CCOCC3)cc2)c(C(N)=O)n1 [compound 458, 1-(2-chloro-6-cyanophenyl)-4-((4-(morpholine-4-carbonyl)phenyl)amino)-1H-pyrazole-3-carboxamide]
< 0.01	0.01 to 0.1	N#Cc1cccc(Cl)c1-n1cc(Nc2ccc(C(=O)N3CC[C@@H](F)C3)cc2)c(C(N)=O)n1 [compound 459, 1-(2-Chloro-6-cyano-phenyl)-4-[4-((R)-3-fluoro-pyrrolidine-1-carbonyl)-phenylamino]-1H-pyrazole-3-carboxylic acid amide]
0.01 to 0.1	0.01 to 0.1	NC(=O)c1nn(-c2c(Cl)cccc2Cl)cc1Nc1cnn(CC(=O)N2CCOCC2)c1 [compound 461, 1-(2,6-dichlorophenyl)-4-((1-(2-morpholino-2-oxoethyl)-1H-pyrazol-4-yl)amino)-1H-pyrazole-3-carboxamide]
